From paper PMC4488150, “Structure-Based Optimization and Biological Evaluation of Pancreatic Lipase Inhibitors as Novel Potential Antiobesity Agents” (Natural Products and Bioprospecting, 2015)
Entries after “also recorded” stand apart in the source; their conditions may differ. One block for each compound: values may come before it.

Legend:
[1] = tested on: HFD-induced C57BL/6 J obese mice; test: High-fat diet-induced obese mice (diet-induced obesity); format: in vivo; settings: for cholesterol (CHO) level / triglyceride (TG) level: blood after final dose
Description: Male C57BL/6 J mice were obtained from Beijing HFK Bioscience Co., Ltd. (Certificate No. SCXK 2014-0004), housed in a temperature- and humidity-controlled room with a 12-hour light/dark cycle, and allowed free access to solid food and tap water for one week prior to the experiments. All of the procedures were performed in accordance with the Institute Ethical Committee for Experimental Animal Use of the Yunnan Province and the Kunming Institute of Botany.
The kits used to determine the triglyceride (TG) and cholesterol (CHO) levels were obtained from the Zhongsheng Beikong Bioengineering Institute.
Three-week-old C57BL/6 J male mice were fed a normal diet for 1 week for acclimatization. Randomly selected mice were fed a normal diet or a 45 % fat diet. After 4 months, the body weights of the mice in the obese group were 20 % higher than those in the control group. These obese mice were randomly divided into the following three groups: the model (45 % fat diet), orlistat (45 % fat diet + orlistat) and Compound groups (45 % fat diet + compound C1). The drugs (50 mg/kg orlistat or 100 mg/kg compound C1) were intragastrically administered for 1 month. During this period, the mice were weighed once every 3 days. Following administration of the final dose, blood samples were collected via the orbital vein after ethyl ether exposure, and epididymal fat was isolated. TG and CHO levels were measured using kits. The ratio of epididymal fat to body weight represents the amount of white adipose tissue (WAT) of each mouse (normalized to the body weight).
Student’s t test was used for comparisons between groups, as indicated in Fig. 2. #p < 0.05, ## or **p < 0.01.

[2] = molecular target: T1, Porcine pancreatic lipase (Sus scrofa, UniProt P00591); test: In vitro pancreatic lipase inhibitory activity (p-nitrophenyl butyrate hydrolysis); format: biochemical; settings: for IC50: read-out: IC50 against pancreatic lipase; for pancreatic lipase inhibitory activity compared with compound A1: compared with compound A1 (best inhibitor of the first series)
T1 sequence (P00591 1-450): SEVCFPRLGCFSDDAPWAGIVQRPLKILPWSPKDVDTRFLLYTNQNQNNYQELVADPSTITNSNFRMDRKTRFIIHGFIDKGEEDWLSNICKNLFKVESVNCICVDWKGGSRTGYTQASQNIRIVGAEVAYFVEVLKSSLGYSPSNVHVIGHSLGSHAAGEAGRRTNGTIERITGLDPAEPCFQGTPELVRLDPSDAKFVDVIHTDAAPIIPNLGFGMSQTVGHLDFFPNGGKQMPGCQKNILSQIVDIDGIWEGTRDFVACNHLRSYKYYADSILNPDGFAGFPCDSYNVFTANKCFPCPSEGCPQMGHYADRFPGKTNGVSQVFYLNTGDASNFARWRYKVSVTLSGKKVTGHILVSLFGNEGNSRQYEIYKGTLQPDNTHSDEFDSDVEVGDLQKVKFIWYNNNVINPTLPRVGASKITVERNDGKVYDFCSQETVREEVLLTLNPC
Description: Compounds A1–A54 were then evaluated for their bioactivity to inhibit pancreatic lipase. Each test was performed in triplicate, and the IC50 values were calculated based on the amount of inhibitor required to produce 50 % inhibition compared with the DMSO vehicle control.
Porcine pancreatic lipase was used to evaluate the inhibitory activity of the monascus pigment derivatives. p-Nitrophenyl butyrate ([…]) was used as the substrate. First, an enzyme-buffer solution was prepared by adding 30 μL of lipase solution (in 10 mM morpholinepropanesulfonic acid (MOPS) and 1 mM EDTA, pH 6.8) to 850 μL of Tris buffer (100 mM Tris–HCl and 5 mM CaCl2, pH 7.0). Pigment solutions were prepared by dissolving each pigment in a mixture (1:1) of ethanol and distilled water. Subsequently, 100 μL of the pigment solution was mixed with 880 μL of the enzyme-buffer solution. Following incubation of the enzyme-pigment mixture for 15 min at 37 °C, 20 μL of the substrate solution (10 mM p-NPB in dimethyl formamide) was added. Enzymatic reactions were conducted for 15 min at 37 °C. The hydrolysis of p-NPB to p-nitrophenol was monitored at 400 nm using a spectrophotometer. One unit of the enzyme was defined as the amount required to liberate 1 μmol of p-nitrophenol under standard assay conditions.

[3] = tested on: HFD-induced C57BL/6 J obese mice; test: High-fat diet-induced obese mice (diet-induced obesity); format: in vivo; settings: up to 400 mg/kg, data not shown
[4] = compound C1 100 mg/kg, 100 mg/kg

SMILES: CCCCCCCCCCC[C@@H](C[C@@H]1OC(=O)[C@H]1CCCCCC)OC(=O)[C@H](CC(C)C)NC=O [orlistat, reference compound]
cholesterol (CHO) level ([1]; orlistat 50 mg/kg): significantly decreased
triglyceride (TG) level ([1]; orlistat 50 mg/kg): significantly decreased
fat weight (epididymal white adipose tissue, normalized to body weight) ([1]; orlistat 50 mg/kg, one month): gradually decreased; also recorded: significantly decreased
body weight ([1]; orlistat 50 mg/kg, one month, intragastric): gradually decreased

IC50 [2]: 47.3 µM
SMILES: CC(C)=CC[C@@]12C=C(CO)C[C@@H]1OC2=O [vibralactone, reference compound]

IC50 [2]: 0.03 µM
SMILES: CCCCCC[C@@H](OC(=O)[C@](OC)(c1ccccc1)C(F)(F)F)C1=C[C@@]2(CC=C(C)C)C(=O)O[C@H]2C1 [Compound B1, (R)-(R)-1-((1R,5S)-1-(3-methylbut-2-en-1-yl)-7-oxo-6-oxabicyclo[3.2.0]hept-2-en-3-yl)heptyl-3,3,3-trifluoro-2-methoxy-2-phenylpropanoate]

SMILES: CCCCCCCN(CCCCCCC)C(=O)C1=C[C@@]2(CC=C(C)C)C(=O)O[C@H]2C1 [Compound C3, (1R,5S)-N,N-diheptyl-1-(3-methylbut-2-en-1-yl)-7-oxo-6-oxabicyclo[3.2.0]hept-2-ene-3-carboxamide]
pancreatic lipase inhibitory activity compared with compound A1 [2]: higher inhibitory activities than compound A1

SMILES: CCCCCCCCN(CCCCCCCC)C(=O)C1=C[C@@]2(CC=C(C)C)C(=O)O[C@H]2C1 [Compound C2, (1R,5S)-1-(3-methylbut-2-en-1-yl)-N,N-dioctyl-7-oxo-6-oxabicyclo[3.2.0]hept-2-ene-3-carboxamide]
pancreatic lipase inhibitory activity compared with compound A1 [2]: higher inhibitory activities than compound A1

SMILES: CCCCCCCCN(CCCCCCC)C(=O)C1=C[C@@]2(CC=C(C)C)C(=O)O[C@H]2C1 [Compound C1, (1R,5S)-N-heptyl-1-(3-methylbut-2-en-1-yl)-N-octyl-7-oxo-6-oxabicyclo[3.2.0]hept-2-ene-3-carboxamide]
IC50 [2]: 0.014 µM
pancreatic lipase inhibitory activity, fold higher than that of vibralactone ([2]; relative to vibralactone): more than 3000 fold
in vivo activity compared with orlistat ([1]; C1 100 mg/kg vs orlistat 50 mg/kg): lower activity than that of orlistat
body weight ([1]; compound C1 100 mg/kg, 33 days, intragastric, vs HFD model group, 100 mg/kg): gradually decreased; also recorded: weight loss; also recorded: significantly low; also recorded: significantly lower
HFD-induced obesity ([1]; compound C1 100 mg/kg, 33 days, intragastric, 100 mg/kg): significantly decreased
cholesterol (CHO) level [1, 4]: significantly decreased
triglyceride (TG) level [1, 4]: significantly decreased; also recorded: significantly reduced
fat weight (epididymal white adipose tissue, normalized to body weight) ([1]; compound C1 100 mg/kg, one month, 100 mg/kg): gradually decreased; also recorded: significantly decreased
toxicity or adverse behavioral effects [3]: without toxicity or adverse behavioral effects

IC50 [2]: 0.083 µM
SMILES: CC(C)=CC[C@@]12C=C(COC(=O)CCCCCc3ccccc3)C[C@@H]1OC2=O [Compound A1, ((1R,5S)-1-(3-methylbut-2-en-1-yl)-7-oxo-6-oxabicyclo[3.2.0]hept-2-en-3-yl)methyl-6-phenylhexanoate]
